Measured values reported in PMC11288027, “Exploring novel microbial metabolites and drugs for inhibiting Clostridioides difficile” (mSphere, 2024).
In brackets after ≈: the same amount, converted by molar mass. Several values for one entry are separate records, joined by “and”; a condition that tells them apart may be missing. Equal values may be shown once. Where a name gives a salt, the structure may show the parent alone. Read-outs that look alike come from different tables or passages of the source.

What was measured:
L. rhamanosus = assay: MIC against human gut microbiota; format: cell-based, Lactobacillus rhamnoosus; details: Lactobacillus
B. fragilis = assay: MIC against human gut microbiota; format: cell-based, Bacteroides fragilis; details: for MIC: Bacteroides fragilis, read-out: minimum inhibitory concentration (MIC)
Bif. longum = assay: MIC against human gut microbiota; format: cell-based, Bifidobacterium longum; details: Bifidobacterium longum
E. faecium = assay: MIC against human gut microbiota; format: cell-based, Enterococcus faecium; details: Enterococcus faecium, read-out: minimum inhibitory concentration (MIC)
[1] = system: C. difficile ATCC BAA-1870; assay: Time-kill assay at 5 × MIC; details: C. difficile ATCC BAA-1870, ~10^6 CFU/mL, up to 24 h
B. dorei = assay: MIC against human gut microbiota; format: cell-based, Bacteroides dorei; details: Phocaeicola dorei, read-out: minimum inhibitory concentration (MIC)
L. brevis = assay: MIC against human gut microbiota; format: cell-based, Lactobacillus brevis; details: Levilactobacillus brevis
[2] = system: C. difficile clinical isolates; assay: MIC against a panel of 20 C. difficile clinical isolates (broth microdilution); format: cell-based, Clostridioides difficile; details: Clostridioides difficile
[3] = system: embryo development in mice; parameters: method as in PMID 19079959; details: cited from earlier work
Bif. adolescentis = assay: MIC against human gut microbiota; format: cell-based, Bifidobacterium adolescentis; details: Bifidobacterium adolescentis, read-out: minimum inhibitory concentration (MIC)
E. fecalis = assay: MIC against human gut microbiota; format: cell-based, Enterococcus faecalis; details: Enterococcus faecalis, read-out: minimum inhibitory concentration (MIC)
L. casei = assay: MIC against human gut microbiota; format: cell-based; details: Lacticaseibacillus casei
Bif. breve = assay: MIC against human gut microbiota; format: cell-based, Bifidobacterium breve; details: Bifidobacterium breve
[4] = system: C. difficile ATCC BAA-1870; assay: MIC of active hits by broth microdilution; details: C. difficile ATCC BAA-1870, 48 h anaerobic; for MIC: Clostridioides difficile, ATCCBAA1870, 48 h
Bif. angulatum = assay: MIC against human gut microbiota; format: cell-based, Bifidobacterium angulatum; details: Bifidobacterium angulatum, read-out: minimum inhibitory concentration (MIC)
S. aureus = system: S. aureus; parameters: method as in PMID 26414088; details: cited from earlier work
[5] = system: Staphylococcus epidermidis; parameters: method as in PMID 26414088; details: cited from earlier work
Acinetobacter baumannii = system: Acinetobacter baumannii; parameters: method as in PMID 26414088; details: cited from earlier work
mice = details: administered orally; cited from earlier work
[6] = B. fragilis HM- 718, BHIS broth, anaerobic

## C[C@H](CCC(=O)O)C[C@H](C)C[C@H](C)C(=O)/C=C(\O)[C@H](C)C[C@H](C)C/C=C/[C@@H](C)[C@@H](O)[C@@H](C)[C@@H](O)C[C@@H]1CC[C@@](C)([C@H]2CC[C@@](C)([C@@H](C)O)O2)O1 [Ionomycin (calcium salt)]
L. rhamanosus; ATCC53103, read-out: minimum inhibitory concentration (MIC)
  MIC: > 256 µg/mL
B. fragilis; [6]
  minimum inhibitory concentration (MIC): >256 µg/mL
B. fragilis
  MIC: > 256 µg/mL
Bif. longum; read-out: minimum inhibitory concentration (MIC), Bif. longum HM- 845, BHIS broth, anaerobic
  MIC: > 256 µg/mL
Bif. longum; read-out: minimum inhibitory concentration (MIC), Bif. longum HM- 846, BHIS broth, anaerobic
  MIC: 64 µg/mL
Bif. longum; read-out: minimum inhibitory concentration (MIC), Bif. longum HM- 847, BHIS broth, anaerobic
  MIC: 128 µg/mL
Bif. longum; read-out: minimum inhibitory concentration (MIC), Bif. longum HM- 848, BHIS broth, anaerobic
  MIC: 256 µg/mL
E. faecium
  MIC: 32 µg/mL
[1]
  time to bactericidal effect: 8 h
  time to eliminate / clear C. difficile: 12 h
B. dorei
  MIC: > 256 µg/mL
L. brevis; ATCC14864, read-out: minimum inhibitory concentration (MIC)
  MIC: ≥ 256 µg/mL
[2]
  MIC50: 1 µg/mL
  MIC90: 2 µg/mL
[2]; 48 h
  MIC50: 1 µg/mL
[2]; ATCC630, read-out: minimum inhibitory concentration (MIC)
  MIC: 0.5 µg/mL
[2]; ATCC43255, read-out: minimum inhibitory concentration (MIC)
  MIC: 1 µg/mL
[2]; ATCCBAA1870, read-out: minimum inhibitory concentration (MIC)
  MIC: 1 µg/mL
[3]
  toxicity on embryo development: no toxicity
Bif. adolescentis
  MIC: 16 µg/mL
E. fecalis
  MIC: 16 µg/mL
L. casei; ATCC334, read-out: minimum inhibitory concentration (MIC)
  MIC: 32 µg/mL
Bif. breve; ATCC15700, read-out: minimum inhibitory concentration (MIC)
  MIC: > 256 µg/mL
[4]
  MIC (μM): 4 µM
  MIC: 2.99 µg/mL
Bif. angulatum
  MIC: 64 µg/mL

## Oc1c(Br)cc(Br)c2cccnc12 [Broxyquinoline]
L. rhamanosus; ATCC53103, L. rhamanosus ATCC-53103, MRS broth, 5% CO2, read-out: minimum inhibitory concentration (MIC)
  MIC: > 256 µg/mL
S. aureus
  MIC: 4 µg/mL (≈ 13.2 µM)
B. fragilis; B. fragilis HM- 709, BHIS broth, anaerobic
  MIC: 8 µg/mL (≈ 26.4 µM)
B. fragilis; [6]
  MIC: 16 µg/mL (≈ 52.8 µM)
[5]
  MIC: 12.5 µM and 4 µg/mL
Bif. longum; Bif. longum HM- 845, BHIS broth, anaerobic, read-out: minimum inhibitory concentration (MIC)
  MIC: > 256 µg/mL
Bif. longum; Bif. longum HM- 846, BHIS broth, anaerobic, read-out: minimum inhibitory concentration (MIC)
  MIC: 128 µg/mL (≈ 423 µM)
Bif. longum; Bif. longum HM- 847, BHIS broth, anaerobic, read-out: minimum inhibitory concentration (MIC)
  MIC: 32 µg/mL (≈ 106 µM)
Bif. longum; Bif. longum HM- 848, BHIS broth, anaerobic, read-out: minimum inhibitory concentration (MIC)
  MIC: 64 µg/mL (≈ 211 µM)
E. faecium; E. faecium HM-202, TSB, aerobic
  MIC: 32 µg/mL (≈ 106 µM)
[1]
  time to eliminate / clear C. difficile: 6 h
B. dorei; B. dorei HM- 719, BHIS broth, anaerobic
  MIC: 8 µg/mL (≈ 26.4 µM)
L. brevis; ATCC14864, L. brevis ATCC-14864, MRS broth, 5% CO2, read-out: minimum inhibitory concentration (MIC)
  MIC: 64 µg/mL (≈ 211 µM)
[2]; 48 h, concentration that inhibited 50% of the 20 C. difficile clinical isolates, read-out: MIC50
  MIC50: 0.125 µg/mL (≈ 0.413 µM)
[2]; ATCC630, C. difficile ATCC 630, read-out: minimum inhibitory concentration (MIC)
  MIC: 1 µg/mL (≈ 3.3 µM)
[2]; ATCC43255, C. difficile ATCC 43255, read-out: minimum inhibitory concentration (MIC)
  MIC: 0.25 µg/mL (≈ 0.825 µM)
[2]; ATCCBAA1870, C. difficile ATCC BAA-1870 (Ribotype-027), purchased compounds, panel test, read-out: minimum inhibitory concentration (MIC)
  MIC: 0.125 µg/mL (≈ 0.413 µM)
[2]; C. difficile CD-1 (Ribotype-027), read-out: minimum inhibitory concentration (MIC)
  MIC: 0.25 µg/mL (≈ 0.825 µM)
[2]; C. difficile CD-6 (Ribotype-027), read-out: minimum inhibitory concentration (MIC)
  MIC: 0.25 µg/mL (≈ 0.825 µM)
[2]; C. difficile CD-10(Ribotype-027), read-out: minimum inhibitory concentration (MIC)
  MIC: 0.125 µg/mL (≈ 0.413 µM)
[2]; C. difficile CD-12, read-out: minimum inhibitory concentration (MIC)
  MIC: 0.125 µg/mL (≈ 0.413 µM)
[2]; C. difficile CD-13, read-out: minimum inhibitory concentration (MIC)
  MIC: 0.03 µg/mL (≈ 0.099 µM)
[2]; C. difficile CD-15, read-out: minimum inhibitory concentration (MIC)
  MIC: 0.25 µg/mL (≈ 0.825 µM)
[2]; C. difficile CD-22, read-out: minimum inhibitory concentration (MIC)
  MIC: 0.125 µg/mL (≈ 0.413 µM)
[2]; C. difficile CD-23, read-out: minimum inhibitory concentration (MIC)
  MIC: 0.125 µg/mL (≈ 0.413 µM)
[2]; C. difficile CD-24, read-out: minimum inhibitory concentration (MIC)
  MIC: 0.015 µg/mL (≈ 0.0495 µM)
[2]; C. difficile CD-26 (Ribotype-027), read-out: minimum inhibitory concentration (MIC)
  MIC: 0.125 µg/mL (≈ 0.413 µM)
[2]; C. difficile CD-28, read-out: minimum inhibitory concentration (MIC)
  MIC: 0.06 µg/mL (≈ 0.198 µM)
[2]; C. difficile CD-29 (Ribotype-027), read-out: minimum inhibitory concentration (MIC)
  MIC: 0.06 µg/mL (≈ 0.198 µM)
[2]; C. difficile CD-30, read-out: minimum inhibitory concentration (MIC)
  MIC: 0.25 µg/mL (≈ 0.825 µM)
[2]; C. difficile NR-49302, read-out: minimum inhibitory concentration (MIC)
  MIC: 0.06 µg/mL (≈ 0.198 µM)
[2]; C. difficile NR-49304, read-out: minimum inhibitory concentration (MIC)
  MIC: 0.03 µg/mL (≈ 0.099 µM)
[2]; C. difficile NR-49308, read-out: minimum inhibitory concentration (MIC)
  MIC: 0.06 µg/mL (≈ 0.198 µM)
[2]; C. difficile NR-49319, read-out: minimum inhibitory concentration (MIC)
  MIC: 0.25 µg/mL (≈ 0.825 µM)
[2]; concentration that inhibited 50% of the 20 C. difficile clinical isolates, read-out: MIC50
  MIC50: 0.125 µg/mL (≈ 0.413 µM)
[2]; concentration that inhibited 90% of the 20 C. difficile clinical isolates, read-out: MIC90
  MIC90: 0.25 µg/mL (≈ 0.825 µM)
Bif. adolescentis; Bif. adolescentis HM- 633, BHIS broth, anaerobic
  MIC: 64 µg/mL (≈ 211 µM)
E. fecalis; E. fecalis HM-970, TSB, aerobic
  MIC: 16 µg/mL (≈ 52.8 µM)
L. casei; ATCC334, L. casei ATCC 334, MRS broth, 5% CO2, read-out: minimum inhibitory concentration (MIC)
  MIC: 32 µg/mL (≈ 106 µM)
Acinetobacter baumannii
  MIC: 12.5 µM and 4 µg/mL
Bif. breve; ATCC15700, Bif. breve ATCC 15700, BHIS broth, anaerobic, read-out: minimum inhibitory concentration (MIC)
  MIC: > 256 µg/mL
[4]
  MIC (μM): 4 µM
  MIC: 1.21 µg/mL
mice
  LD50: 7400 mg/kg
Bif. angulatum; Bif. angulatum HM- 1189, BHIS broth, anaerobic
  MIC: 8 µg/mL (≈ 26.4 µM)
